Experiments:
[1] = biological target: JAK1 (Homo sapiens (Human), UniProt P23458); assay: Biochemical JAK kinase assay (LanthaScreen), JAK1; conditions: for Ki: read-out: JAK1 pKi (converted)
Description: (§1) A panel of four LanthaScreen JAK biochemical assays (JAK1, 2, 3 and Tyk2) were carried in a common kinase reaction buffer (50 mM HEPES, pH 7.5, 0.01% Brij-35, 10 mM MgCl2, and 1 mM EGTA). Recombinant GST-tagged JAK enzymes and a GFP-tagged STAT1 peptide substrate were obtained from Life Technologies.
(§2) Serially diluted compounds were pre-incubated with each of the four JAK enzymes and the substrate in white 384-well microplates (Corning) at ambient temperature for 1 h. ATP was subsequently added to initiate the kinase reactions in 10 μL total volume, with 1% DMSO. The final enzyme concentrations for JAK1, 2, 3 and Tyk2 are 4.2 nM, 0.1 nM, 1 nM, and 0.25 nM respectively; the corresponding Km ATP concentrations used are 25 μM, 3 μM, 1.6 μM, and 10 μM; while the substrate concentration is 200 nM for all four assays. Kinase reactions were allowed to proceed for 1 hour at ambient temperature before a 10 μL preparation of EDTA (10 mM final concentration) and Tb-anti-pSTAT1 (pTyr701) antibody (Life Technologies, 2 nM final concentration) in TR-FRET dilution buffer (Life Technologies) was added. The plates were allowed to incubate at ambient temperature for 1 h before being read on the EnVision reader (Perkin Elmer). Emission ratio signals (520 nm/495 nm) were recorded and utilized to calculate the percent inhibition values based on DMSO and background controls.
(§3) For dose-response analysis, percent inhibition data were plotted vs. compound concentrations, and IC50 values were determined from a 4-parameter robust fit model with the Prism software (GraphPad Software). Results were expressed as pIC50 (negative logarithm of IC50) and subsequently converted to pKi (negative logarithm of dissociation constant, Ki) using the Cheng-Prusoff equation.
(§4) Test compounds having a lower Ki value or higher pKi value in the four JAK assays show greater inhibition of JAK activity.

[2] = biological target: JAK2 (Homo sapiens (Human), UniProt O60674); assay: Biochemical JAK kinase assay (LanthaScreen), JAK2; conditions: for Ki: read-out: JAK2 pKi (converted)
Chain of JAK2 (O60674 whole entry): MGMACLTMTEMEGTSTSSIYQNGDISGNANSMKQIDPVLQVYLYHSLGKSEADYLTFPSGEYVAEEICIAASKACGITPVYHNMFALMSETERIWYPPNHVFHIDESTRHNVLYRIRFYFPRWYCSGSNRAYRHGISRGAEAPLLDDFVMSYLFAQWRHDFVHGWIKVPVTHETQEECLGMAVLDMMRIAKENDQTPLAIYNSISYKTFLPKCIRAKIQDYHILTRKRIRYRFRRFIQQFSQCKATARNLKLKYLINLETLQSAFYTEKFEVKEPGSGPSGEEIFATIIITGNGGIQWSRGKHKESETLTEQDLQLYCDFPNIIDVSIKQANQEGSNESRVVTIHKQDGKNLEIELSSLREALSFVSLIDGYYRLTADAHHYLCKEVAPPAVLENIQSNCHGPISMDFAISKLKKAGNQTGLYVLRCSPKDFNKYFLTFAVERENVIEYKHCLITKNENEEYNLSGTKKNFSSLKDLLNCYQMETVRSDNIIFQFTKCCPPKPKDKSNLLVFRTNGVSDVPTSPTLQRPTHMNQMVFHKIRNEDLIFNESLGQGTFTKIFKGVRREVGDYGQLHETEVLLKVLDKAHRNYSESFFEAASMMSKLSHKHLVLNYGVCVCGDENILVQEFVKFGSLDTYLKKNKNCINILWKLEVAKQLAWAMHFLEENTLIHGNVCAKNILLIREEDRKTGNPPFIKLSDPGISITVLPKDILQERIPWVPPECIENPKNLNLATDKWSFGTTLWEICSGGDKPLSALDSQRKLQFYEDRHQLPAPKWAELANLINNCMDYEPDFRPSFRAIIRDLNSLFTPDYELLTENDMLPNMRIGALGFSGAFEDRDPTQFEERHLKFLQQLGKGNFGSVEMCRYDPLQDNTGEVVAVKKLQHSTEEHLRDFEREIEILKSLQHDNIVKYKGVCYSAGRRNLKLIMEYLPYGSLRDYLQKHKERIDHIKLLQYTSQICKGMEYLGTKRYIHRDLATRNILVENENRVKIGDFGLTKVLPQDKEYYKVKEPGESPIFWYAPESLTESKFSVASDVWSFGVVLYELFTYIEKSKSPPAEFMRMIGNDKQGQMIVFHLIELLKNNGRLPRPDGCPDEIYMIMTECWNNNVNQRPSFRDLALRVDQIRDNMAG
Description: as §1, §2, §3, §4

[3] = system: IL-13 induced STAT6 phosphorylation in BEAS-2B human lung epithelial cells; assay: Cellular JAKI potency assay (BEAS-2B); format: cell-based; conditions: Homo sapiens, BEAS-2B, BEAS-2B cells, read-out: BEAS2B pIC50 (converted)
Description: The JAKI cellular potency assay was carried out by measuring inhibition of interleukin-13 (IL-13, R&D Systems) induced STAT6 phosphorylation in BEAS-2B human lung epithelial cells (ATCC). BEAS-2B cells were grown at 37° C. in a 5% CO2 humidified incubator in 50% DMEM/50% F-12 medium (Life Technologies) supplemented with 10% FBS (Hyclone), 100 U/mL penicillin, 100 μg/mL streptomycin (Life Technologies), and 2 mM GlutaMAX (Life Technologies). On day 1 of the assay, cells were seeded at a 7,500 cells/well density in white poly-D-lysine-coated 384-well plates (Corning) with 25 μL medium and were allowed to adhere overnight in the incubator. On day 2 of the assay, the medium was removed and replaced with 12 μL of assay buffer (Hank's Balanced Salt Solution/HBSS, 25 mM HEPES, and 1 mg/ml bovine serum albumin/BSA) containing dose-responses of test compounds. Compounds were serially diluted in DMSO and then diluted another 1000-fold in media to bring the final DMSO concentration to 0.1%. Cells were incubated with test compounds at 37° C. for 1 h and followed by the addition of 12 μl of pre-warmed IL-13 (80 ng/mL in assay buffer) for stimulation. After incubating at 37° C. for 30 min, the assay buffer (containing compound and IL-13) was removed, and 10 μL of cell lysis buffer (25 mM HEPES, 0.1% SDS, 1% NP-40, 5 mM MgCl2, 1.3 mM EDTA, 1 mM EGTA, supplemented with Complete Ultra mini protease inhibitors and PhosSTOP from Roche Diagnostics). The plates were shaken at ambient temperature for 30 min before the addition of detection reagents. Levels of pSTAT6 were measured using the AlphaLISA SureFire Ultra pSTAT6 (Tyr641) assay kit from PerkinElmer. For dose-response analysis, percent inhibition data were plotted vs. compound concentrations, and IC50 values were determined from a 4-parameter robust fit model with the Graphpad Prism software. Results are expressed as the negative logarithm of the IC50 value, pIC50.
Test compounds having a lower IC50 value or higher pIC50 value in this assay show greater inhibition of IL-13 induced STAT6 phosphorylation.

Chain of JAK1 (P23458 whole entry): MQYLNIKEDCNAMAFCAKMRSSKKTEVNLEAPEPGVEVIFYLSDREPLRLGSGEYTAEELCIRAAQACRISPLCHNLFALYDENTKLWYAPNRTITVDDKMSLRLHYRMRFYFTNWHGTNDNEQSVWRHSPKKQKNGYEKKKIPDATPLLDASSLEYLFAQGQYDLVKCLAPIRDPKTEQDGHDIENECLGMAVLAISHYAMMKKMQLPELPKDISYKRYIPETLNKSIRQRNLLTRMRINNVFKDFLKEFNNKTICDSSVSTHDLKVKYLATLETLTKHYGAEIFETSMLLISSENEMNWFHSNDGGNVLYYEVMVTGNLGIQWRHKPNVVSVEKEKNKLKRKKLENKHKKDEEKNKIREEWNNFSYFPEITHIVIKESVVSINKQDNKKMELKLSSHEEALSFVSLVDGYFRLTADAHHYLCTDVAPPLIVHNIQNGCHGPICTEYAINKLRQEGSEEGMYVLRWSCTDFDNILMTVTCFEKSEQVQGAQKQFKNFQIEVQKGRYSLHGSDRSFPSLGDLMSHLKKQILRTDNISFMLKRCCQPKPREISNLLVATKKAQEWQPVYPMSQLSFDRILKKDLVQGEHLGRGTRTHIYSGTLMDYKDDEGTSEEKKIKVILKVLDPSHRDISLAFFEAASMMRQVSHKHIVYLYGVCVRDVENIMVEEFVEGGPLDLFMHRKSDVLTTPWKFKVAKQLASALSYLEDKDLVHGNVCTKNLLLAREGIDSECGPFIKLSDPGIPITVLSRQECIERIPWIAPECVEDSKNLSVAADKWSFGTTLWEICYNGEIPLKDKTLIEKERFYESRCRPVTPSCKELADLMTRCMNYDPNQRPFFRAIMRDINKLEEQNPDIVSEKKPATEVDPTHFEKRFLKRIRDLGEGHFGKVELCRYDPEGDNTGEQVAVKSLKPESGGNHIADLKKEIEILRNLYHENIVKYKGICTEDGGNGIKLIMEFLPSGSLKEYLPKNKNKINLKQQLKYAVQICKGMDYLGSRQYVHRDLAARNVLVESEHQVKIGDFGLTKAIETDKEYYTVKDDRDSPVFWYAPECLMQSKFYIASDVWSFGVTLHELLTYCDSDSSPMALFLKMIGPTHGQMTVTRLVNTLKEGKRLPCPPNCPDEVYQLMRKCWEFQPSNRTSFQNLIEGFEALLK

Row | SMILES | Ki [1] [nM] | Ki [2] [nM] | IC50 [3] [nM] | JAK2 pKi [2] | JAK1 pKi [1]
1 | CCc1cc(O)ccc1-c1ccc2c(-c3nc(C4=C[C@@H](C)N[C@@H](C)C4)c[nH]3)n[nH]c2c1 (racemic) [Example 366] | 0.1 to 1 | 0.1 to 1 | 31.6 to 100 |  | 
2 | CCc1cc(O)ccc1-c1ccc2c(-c3nc(C4=CCCN(C5CC(O)C5)C4)c[nH]3)n[nH]c2c1F (stereo not drawn) [Compound 10, 3-ethyl-4-(7-fluoro-3-(4-(1-(3-hydroxycyclobutyl)-1,2,5,6-tetrahydropyridin-3-yl)-1H-imidazol-2-yl)-1H-indazol-6-yl)phenol] | 0.1 to 1 | 0.1 to 1 | 10 to 31.6 |  | 
3 | CCc1cc(O)ccc1-c1ccc2c(-c3nc(C4=CCN(Cc5cn[nH]c5)CC4)c[nH]3)n[nH]c2c1F [Compound 11, 4-(3-(4-(1-((1H-pyrazol-4-yl)methyl)-1,2,3,6-tetrahydropyridin-4-yl)-1H-imidazol-2-yl)-7-fluoro-1H-indazol-6-yl)-3-ethylphenol] | 0.1 to 1 |  | 10 to 31.6 | A (A represents a pKi value ≥10 (Ki≤0.1 nM)) | 
4 | CCc1cc(O)ccc1-c1ccc2c(-c3nc(C4=CCN(CC(=O)NC)CC4)c[nH]3)n[nH]c2c1F [Compound 12, 2-(4-(2-(6-(2-ethyl-4-hydroxyphenyl)-7-fluoro-1H-indazol-3-yl)-1H-imidazol-4-yl)-3,6-dihydropyridin-1(2H)-yl)-N-methylacetamide] | 0.1 to 1 | 0.1 to 1 | 10 to 31.6 |  | 
5 | CCc1cc(O)ccc1-c1ccc2c(-c3nc(C4=CCCN(C(C)C)C4)c[nH]3)n[nH]c2c1 [Example 28] | 0.1 to 1 | 0.1 to 1 | 3.16 to 10 |  | 
6 | CCc1cc(O)ccc1-c1ccc2c(-c3nc(C4=CCN(CCC(C)(C)O)CC4)c[nH]3)n[nH]c2c1 [Example 35] |  |  | 3.16 to 10 | A (A represents a pKi value ≥10 (Ki≤0.1 nM)) | A (A represents a pKi value ≥10 (Ki≤0.1 nM))
7 | CCc1cc(O)ccc1-c1ccc2c(-c3nc(C4=CCN(CCC(C)(C)O)CC4)c[nH]3)n[nH]c2c1F [Example 37] | 0.1 to 1 | 0.1 to 1 | 10 to 31.6 |  | 
8 | CCc1cc(O)ccc1-c1ccc2c(-c3nc(C4=CCN(C[C@@H](C)CO)CC4)c[nH]3)n[nH]c2c1F [Example 39] | 0.1 to 1 | 0.1 to 1 | 10 to 31.6 |  | 
9 | CCc1cc(O)ccc1-c1ccc2c(-c3nc(C4=CCN(C5CC(O)C5)CC4)c[nH]3)n[nH]c2c1F (stereo not drawn) [Example 40] |  |  | 10 to 31.6 | A (A represents a pKi value ≥10 (Ki≤0.1 nM)) | A (A represents a pKi value ≥10 (Ki≤0.1 nM))
10 | CCc1cc(O)ccc1-c1ccc2c(-c3nc(C4=CCCN(CCO)C4)c[nH]3)n[nH]c2c1 [Example 41] | 0.1 to 1 |  | 3.16 to 10 | A (A represents a pKi value ≥10 (Ki≤0.1 nM)) | 
11 | CCc1cc(O)ccc1-c1ccc2c(-c3nc(C4=CCCN(C5CC(O)C5)C4)c[nH]3)n[nH]c2c1 (stereo not drawn) [Example 43] | 0.1 to 1 |  | 3.16 to 10 | A (A represents a pKi value ≥10 (Ki≤0.1 nM)) | 
12 | CCc1cc(O)ccc1-c1ccc2c(-c3nc(C4=CCCN(C(C)CO)C4)c[nH]3)n[nH]c2c1F (stereo not drawn) [Example 46] | 0.1 to 1 | 0.1 to 1 | 10 to 31.6 |  | 
13 | CCc1cc(O)ccc1-c1ccc2c(-c3nc(C4=CCCN(C[C@H](C)CO)C4)c[nH]3)n[nH]c2c1F [Example 48] | 0.1 to 1 | 0.1 to 1 | 10 to 31.6 |  | 
14 | CCc1cc(O)ccc1-c1ccc2c(-c3nc(C4=CCCN(C[C@@H](C)CO)C4)c[nH]3)n[nH]c2c1F [Example 49] | 0.1 to 1 | 0.1 to 1 | 10 to 31.6 |  | 
15 | CCc1cc(O)ccc1-c1ccc2c(-c3nc(C4=CCN(C5CC(O)C5)C4)c[nH]3)n[nH]c2c1 (stereo not drawn) [Example 52] |  |  | 3.16 to 10 | A (A represents a pKi value ≥10 (Ki≤0.1 nM)) | A (A represents a pKi value ≥10 (Ki≤0.1 nM))
16 | CCc1cc(O)ccc1-c1ccc2c(-c3nc(C4=CCN(CCC(C)(C)O)C4)c[nH]3)n[nH]c2c1F [Example 55] |  |  | 3.16 to 10 | A (A represents a pKi value ≥10 (Ki≤0.1 nM)) | A (A represents a pKi value ≥10 (Ki≤0.1 nM))
17 | CCc1cc(O)ccc1-c1ccc2c(-c3nc(C4=CCN(CCCOC)CC4)c[nH]3)n[nH]c2c1 [Example 56] |  |  | 3.16 to 10 | A (A represents a pKi value ≥10 (Ki≤0.1 nM)) | A (A represents a pKi value ≥10 (Ki≤0.1 nM))
18 | CCc1cc(O)ccc1-c1ccc2c(-c3nc(C4=CCN(C(C)C5CC(O)C5)CC4)c[nH]3)n[nH]c2c1F (stereo not drawn) [Example 58] |  |  | 3.16 to 10 | A (A represents a pKi value ≥10 (Ki≤0.1 nM)) | A (A represents a pKi value ≥10 (Ki≤0.1 nM))
19 | CCc1cc(O)ccc1-c1ccc2c(-c3nc(C4=CCN(CCCOC)CC4)c[nH]3)n[nH]c2c1F [Example 59] | 0.1 to 1 | 0.1 to 1 | 10 to 31.6 |  | 
20 | CCc1cc(O)ccc1-c1ccc2c(-c3nc(C4=CCN(CC5COC5)CC4)c[nH]3)n[nH]c2c1F [Example 60] | 0.1 to 1 |  | 10 to 31.6 | A (A represents a pKi value ≥10 (Ki≤0.1 nM)) | 
21 | CCc1cc(O)ccc1-c1ccc2c(-c3nc(C4=CCN(C5CCOCC5)CC4)c[nH]3)n[nH]c2c1F [Example 61] | 0.1 to 1 |  | 10 to 31.6 | A (A represents a pKi value ≥10 (Ki≤0.1 nM)) | 
22 | CCc1cc(O)ccc1-c1ccc2c(-c3nc(C4=CCN(CC5CCCO5)CC4)c[nH]3)n[nH]c2c1F (stereo not drawn) [Example 62] | 0.1 to 1 |  | 10 to 31.6 | A (A represents a pKi value ≥10 (Ki≤0.1 nM)) | 
23 | CCc1cc(O)ccc1-c1ccc2c(-c3nc(C4=CCN(CC5CCCOC5)CC4)c[nH]3)n[nH]c2c1F (stereo not drawn) [Example 63] | 0.1 to 1 | 0.1 to 1 | 10 to 31.6 |  | 
24 | CCc1cc(O)ccc1-c1ccc2c(-c3nc(C4=CCCN(C(=O)[C@@H](N)C(C)(C)O)C4)c[nH]3)n[nH]c2c1 [Example 165] | 0.1 to 1 |  | 10 to 31.6 |  | 
25 | CCc1cc(O)ccc1-c1ccc2c(-c3nc(C4=C[C@H](CO)N(CCS(C)(=O)=O)C4)c[nH]3)n[nH]c2c1F [Example 279] | 0.1 to 1 |  | 31.6 to 100 |  | 
26 | CCc1cc(O)ccc1-c1ccc2c(-c3nc(C4=C[C@H](CO)N(CCS(=O)(=O)NC)C4)c[nH]3)n[nH]c2c1F [Example 280] |  |  | 100 to 316 | A (A represents a pKi value ≥10 (Ki≤0.1 nM)) | 

Reference: patent publication US20240092758A1, “IMIDAZOLO INDAZOLE COMPOUNDS AS JAK INHIBITORS” (Theravance Biopharma R&D IP, LLC, priority 2021, published 2024)
